# In patent US20120255051A1, “HERBICIDE TOLERANT PLANTS” (priority 2009, published 2012):
# “And” between values parts separate entries of the source, which are not always exact repeats. Equal entries are not always repeated.
# Tested on: Brassica plants comprising mutant AHAS alleles
# Experiment: Field trial, pre-planting treatment (0, 10, 20, 30 g a.i./ha), two locations in Canada: ERG, EST1, EST2, PPTOX, VIG1, VIG2, VIG3 scores
# Type: in vivo, Brassica napus
# Description: Tests were set up and conducted to asses the growth and performance of plants comprising AHAS full knock-out alleles, and to further analyze the correlation between the presence of full knockout and missense AHAS genes in Brassica plants and plant growth and herbicide tolerance of the Brassica plants in the field. To this end, the Brassica plants identified in Example 1 and 2 were backcrossed two times with an elite parent line, and subsequently selfed twice to obtain homozygous plants (BC2S2). Plants were grown as row plots in a split plot design with three replicates (main plots=herbicide treatments, subplots=genotypes) at two locations in Canada. Treatment pre-planting was carried out on the soil about two days before sowing with a dose of 0 (treatment A), 10 (treatment B), 20 (treatment C) or 30 (treatment D) g a.i./ha of thiencarbazone methyl. Herbicide tolerance was measured by scoring for different parameters. The parameter emergence (ERG) was scored at the cotyledon stage on a scale 1-9, where 1 means late emergence and 9 means early emergence. Establishment was scored 14 days after sowing (EST1) and 21 days after sowing (EST2). Scores were from 1 to 9, where 1 is the worst establishment (least plants that emerged), and 9 is the best establishment (most plants emerged). Phytotoxicity (PPTOX) was determined after establishment. Plants were evaluated on a scale of 1 to 9, where 1=completely yellowing, 5=50% of plant is yellow and 9=no yellowing. The vigor scores (see above) were determined at 1-2 leaf stage (VIG1), 7 days after VIG1 (VIG2) and 14 days after VIG1 (VIG3). The average values (Av) and standard deviations (SD) of the scores for the different parameters are represented in Table 7a-g.
# Further, the contribution of the knock-out allele to herbicide tolerance conferred by the missense allele was calculated. First, the scores were corrected for a possible effect of the growth per se, independent of herbicide treatment. To this end, the scores for treatments B, C and D were divided by the scores for treatment A for the same genotype and for the same parameter (corrected herbicide tolerance scores). Next, the effect of the knock-out allele to these corrected herbicide tolerance scores obtained by the missense allele was calculated. Therefore, the corrected herbicide tolerance scores for the missense—knock-out allele combination was divided by the corrected herbicide tolerance scores for the missense allele—wild-type combination. In case the knock-out allele has no effect on herbicide tolerance conferred by the missense allele, this ratio should be 1. In case the knock-out allele positively contributes to the herbicide tolerance conferred by the missense allele, this ratio should be higher than 1. The results for the contribution of the knock-out allele to herbicide tolerance conferred by the missense allele as calculated above are shown in table 8.
# [1] = AHAS1 HETO108/AHAS3 HETO104, 30 g a.i./ha pre-planting (D), Location A
# [2] = AHAS1 HETO108/AHAS3 HETO104, 30 g a.i./ha pre-planting (D), Location B
# [3] = AHAS1 HETO108/AHAS3 HETO111, 10 g a.i./ha pre-planting (B), Location A
# [4] = AHAS1 HETO108/AHAS3 HETO111, 10 g a.i./ha pre-planting (B), Location B
# [5] = AHAS1 HETO108/AHAS3 HETO111, 20 g a.i./ha pre-planting (C), Location A
# [6] = AHAS1 HETO108/AHAS3 HETO111, 20 g a.i./ha pre-planting (C), Location B
# [7] = AHAS1 HETO108/AHAS3 HETO111, 30 g a.i./ha pre-planting (D), Location A
# [8] = AHAS1 HETO108/AHAS3 HETO111, 30 g a.i./ha pre-planting (D), Location B
# [9] = AHAS1 HETO108/AHAS3 WT, 10 g a.i./ha pre-planting (B), Location A
# [10] = AHAS1 HETO108/AHAS3 WT, 10 g a.i./ha pre-planting (B), Location B
# [11] = AHAS1 HETO108/AHAS3 WT, 20 g a.i./ha pre-planting (C), Location A
# [12] = AHAS1 HETO108/AHAS3 WT, 20 g a.i./ha pre-planting (C), Location B
# [13] = AHAS1 HETO108/AHAS3 WT, 30 g a.i./ha pre-planting (D), Location A
# [14] = AHAS1 HETO108/AHAS3 WT, 30 g a.i./ha pre-planting (D), Location B
# [15] = AHAS1 HETO112, AHAS3 HETO111, treatment B 10 g a.i./ha pre-planting, Location A
# [16] = AHAS1 HETO112, AHAS3 HETO111, treatment B 10 g a.i./ha pre-planting, Location B
# [17] = AHAS1 HETO112, AHAS3 HETO111, treatment C 20 g a.i./ha pre-planting, Location A
# [18] = AHAS1 HETO112, AHAS3 HETO111, treatment C 20 g a.i./ha pre-planting, Location B
# [19] = AHAS1 HETO112, AHAS3 HETO111, treatment D 30 g a.i./ha pre-planting, Location A
# [20] = AHAS1 HETO112, AHAS3 HETO111, treatment D 30 g a.i./ha pre-planting, Location B
# [21] = AHAS1 HETO112, AHAS3 WT, treatment B 10 g a.i./ha pre-planting, Location A
compound,measurement,setting,value
"COC(=O)c1csc(C)c1S(=O)(=O)NC(=O)n1nc(OC)n(C)c1=O [thiencarbazone-methyl, methyl 4-[(4,5-dihydro-3-methoxy-4-methyl-5-oxo-1H-1,2,4-triazol-1-yl)carbonylsulfamoyl]-5-methylthiophene-3-carboxylate]","vigor2 (VIG2) score, Av","AHAS1 HETO108/AHAS3 HETO104, 20 g a.i./ha pre-planting (C), Location B",6.33
same,"establishment (EST2) score, Av",[1],5.33
same,"phytotoxicity (PPTOX) score, Av",[1],5.00
same,"vigor2 (VIG2) score, Av",[1],5.67
same,"establishment (EST2) score, Av",[2],5.33
same,"phytotoxicity (PPTOX) score, Av",[2],6.33
same,"vigor2 (VIG2) score, Av",[2],6.00
same,"establishment (EST2) score, Av",[3],6.33
same,"vigor1 (VIG1) score, Av",[3],6.33
same,"vigor2 (VIG2) score, Av",[3],7.33
same,"establishment (EST2) score, Av",[4],6.00
same,"vigor2 (VIG2) score, Av",[4],7.00
same,"establishment (EST2) score, Av",[5],5.67
same,"phytotoxicity (PPTOX) score, Av",[5],5.00
same,"vigor2 (VIG2) score, Av",[5],6.33
same,"establishment (EST2) score, Av",[6],5.33
same,"vigor1 (VIG1) score, Av",[6],5.00
same,"vigor2 (VIG2) score, Av",[6],6.33
same,"establishment (EST2) score, Av",[7],6.00
same,"phytotoxicity (PPTOX) score, Av",[7],6.00
same,"vigor1 (VIG1) score, Av",[7],6.00
same,"vigor2 (VIG2) score, Av",[7],7.00
same,"establishment (EST2) score, Av",[8],4.00
same,"vigor2 (VIG2) score, Av",[8],4.33
same,"establishment (EST2) score, Av",[9],6.67 and 6.33
same,"phytotoxicity (PPTOX) score, Av",[9],7.00
same,"vigor1 (VIG1) score, Av",[9],7.00 and 6.00
same,"vigor2 (VIG2) score, Av",[9],8.33 and 7.67
same,"establishment (EST2) score, Av",[10],5.00 and 5.33
same,"phytotoxicity (PPTOX) score, Av",[10],6.33 and 5.00
same,"vigor1 (VIG1) score, Av",[10],6.00
same,"vigor2 (VIG2) score, Av",[10],5.33 and 5.67
same,"establishment (EST2) score, Av",[11],5.00 and 5.67
same,"phytotoxicity (PPTOX) score, Av",[11],5.00
same,"vigor1 (VIG1) score, Av",[11],6.00
same,"vigor2 (VIG2) score, Av",[11],6.67
same,"phytotoxicity (PPTOX) score, Av",[12],7.00
same,"vigor1 (VIG1) score, Av",[12],5.00
same,"vigor2 (VIG2) score, Av",[12],6.33 and 7.67
same,"establishment (EST2) score, Av",[13],5.67 and 5.33
same,"phytotoxicity (PPTOX) score, Av",[13],5.00
same,"vigor2 (VIG2) score, Av",[13],6.33
same,"phytotoxicity (PPTOX) score, Av",[14],5.00
same,"vigor1 (VIG1) score, Av",[14],5.00
same,"vigor2 (VIG2) score, Av",[14],5.00 and 5.33
same,emergence (ERG) score Av,[15],4.33
same,"establishment (EST1) score Av, 14 days after sowing",[15],5.00
same,emergence (ERG) score Av,[16],4.33
same,"establishment (EST1) score Av, 14 days after sowing",[16],5.67
same,emergence (ERG) score Av,[17],5.00
same,"establishment (EST1) score Av, 14 days after sowing",[17],5.33
same,emergence (ERG) score Av,[18],4.00
same,"establishment (EST1) score Av, 14 days after sowing",[18],5.00
same,emergence (ERG) score Av,[19],5.33
same,"establishment (EST1) score Av, 14 days after sowing",[19],5.67
same,emergence (ERG) score Av,[20],3.00
same,"establishment (EST1) score Av, 14 days after sowing",[20],3.67
same,emergence (ERG) score Av,[21],1.67
same,"establishment (EST1) score Av, 14 days after sowing",[21],1.67
same,emergence (ERG) score Av,"AHAS1 HETO112, AHAS3 WT, treatment B 10 g a.i./ha pre-planting, Location B",1.67
